Consider 15 compounds from ChEMBL document CHEMBL1909046, “DrugMatrix in vitro pharmacology data”.

pIC50, pKi: −log10 of the molar value.

The target of experiment [1] is Vascular endothelial growth factor receptor 1 (Homo sapiens, UniProt P17948). The format is cell-based. The note with it: huvec. Also: in other assays of this panel Not Active means under 50% inhibition at 10 µM.
Experiment [2] has as its target T1, Vasoactive intestinal polypeptide receptor 1 (Homo sapiens, UniProt P32241). Also: in other assays of this panel Not Active means under 50% inhibition at 10 µM.
T1 sequence (P32241 whole entry): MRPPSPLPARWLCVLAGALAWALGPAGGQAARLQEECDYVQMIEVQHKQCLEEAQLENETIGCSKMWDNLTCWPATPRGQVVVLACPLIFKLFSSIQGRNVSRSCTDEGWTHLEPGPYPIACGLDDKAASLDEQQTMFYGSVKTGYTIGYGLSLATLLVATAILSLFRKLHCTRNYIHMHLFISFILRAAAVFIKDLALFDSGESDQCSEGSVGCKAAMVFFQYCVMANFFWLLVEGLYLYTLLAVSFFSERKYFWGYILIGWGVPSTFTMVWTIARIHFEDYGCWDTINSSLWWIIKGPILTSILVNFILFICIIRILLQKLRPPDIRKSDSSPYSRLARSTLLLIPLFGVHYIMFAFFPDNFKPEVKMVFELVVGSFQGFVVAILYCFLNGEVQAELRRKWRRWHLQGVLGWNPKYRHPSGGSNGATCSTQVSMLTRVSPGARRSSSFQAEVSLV
In kind it is cell membranes, Membrane. The settings on record: ht-29.

Experiment [3] concerns the target D(1A) dopamine receptor (Homo sapiens, UniProt P21728). In words: DRUGMATRIX: Dopamine D1 radioligand binding (ligand: [3H] SCH-23390). In kind it is cell membranes, CHO, Membrane. The note with it: Not Active = under 50% inhibition at 10 µM.
For experiment [4], the target named is T2, D(4) dopamine receptor (Homo sapiens, UniProt P21917).
T2 sequence (P21917 whole entry): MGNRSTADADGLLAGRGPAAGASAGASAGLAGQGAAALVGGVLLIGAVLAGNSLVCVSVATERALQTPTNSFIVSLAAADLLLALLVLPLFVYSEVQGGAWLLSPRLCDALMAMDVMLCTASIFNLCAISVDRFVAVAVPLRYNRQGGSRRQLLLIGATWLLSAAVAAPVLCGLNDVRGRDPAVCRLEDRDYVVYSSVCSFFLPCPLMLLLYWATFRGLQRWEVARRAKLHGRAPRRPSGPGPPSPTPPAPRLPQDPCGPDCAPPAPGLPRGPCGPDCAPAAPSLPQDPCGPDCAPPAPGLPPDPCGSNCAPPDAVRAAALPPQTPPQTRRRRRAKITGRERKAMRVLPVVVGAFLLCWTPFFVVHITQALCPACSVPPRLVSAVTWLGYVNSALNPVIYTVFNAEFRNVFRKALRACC
The experiment is described as follows: DRUGMATRIX: Dopamine D4.2 radioligand binding (ligand: [3H] Spiperone). The settings on record: cho-k1; Not Active = under 50% inhibition at 10 µM. The format is cell membranes, CHO-K1, Membrane.

In experiment [5] the target is T3, Endothelin-1 receptor (Homo sapiens, UniProt P25101). Also: in other assays of this panel Not Active means under 50% inhibition at 10 µM.
T3 sequence (P25101 whole entry): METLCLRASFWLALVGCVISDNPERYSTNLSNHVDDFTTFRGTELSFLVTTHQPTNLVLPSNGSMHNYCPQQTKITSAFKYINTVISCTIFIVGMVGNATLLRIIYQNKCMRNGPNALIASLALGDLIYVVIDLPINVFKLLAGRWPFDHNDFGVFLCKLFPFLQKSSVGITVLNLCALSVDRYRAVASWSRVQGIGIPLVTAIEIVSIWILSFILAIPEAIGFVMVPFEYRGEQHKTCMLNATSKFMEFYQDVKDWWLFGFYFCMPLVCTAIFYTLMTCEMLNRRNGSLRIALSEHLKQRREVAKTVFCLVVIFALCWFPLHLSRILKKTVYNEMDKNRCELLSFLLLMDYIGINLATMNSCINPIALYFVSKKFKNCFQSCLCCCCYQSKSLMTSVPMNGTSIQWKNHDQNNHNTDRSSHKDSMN
In kind it is cell membranes, Membrane. The settings on record: cho-k1.

The target of experiment [6] is Glycine receptor (Rattus norvegicus, UniProt P22771+P24524+P07727+P20781). In kind it is cell membranes, Wistar, Spinal cord, Membrane. Also: in other assays of this panel Not Active means under 50% inhibition at 10 µM.
Experiment [7] concerns the target Nitric oxide synthase 1 (Rattus norvegicus, UniProt P29476). In kind it is tissue-based, Cerebellum. Also: in other assays of this panel Not Active means under 50% inhibition at 10 µM.
A short description of experiment [8]: DRUGMATRIX: Potassium Channel [KATP] radioligand binding (ligand: [3H] Glyburide). In kind it is cell membranes, Membrane. The note with it: hit-t15, Not Active = under 50% inhibition at 10 µM.

Sequence of Nitric oxide synthase 1 (P29476 whole entry): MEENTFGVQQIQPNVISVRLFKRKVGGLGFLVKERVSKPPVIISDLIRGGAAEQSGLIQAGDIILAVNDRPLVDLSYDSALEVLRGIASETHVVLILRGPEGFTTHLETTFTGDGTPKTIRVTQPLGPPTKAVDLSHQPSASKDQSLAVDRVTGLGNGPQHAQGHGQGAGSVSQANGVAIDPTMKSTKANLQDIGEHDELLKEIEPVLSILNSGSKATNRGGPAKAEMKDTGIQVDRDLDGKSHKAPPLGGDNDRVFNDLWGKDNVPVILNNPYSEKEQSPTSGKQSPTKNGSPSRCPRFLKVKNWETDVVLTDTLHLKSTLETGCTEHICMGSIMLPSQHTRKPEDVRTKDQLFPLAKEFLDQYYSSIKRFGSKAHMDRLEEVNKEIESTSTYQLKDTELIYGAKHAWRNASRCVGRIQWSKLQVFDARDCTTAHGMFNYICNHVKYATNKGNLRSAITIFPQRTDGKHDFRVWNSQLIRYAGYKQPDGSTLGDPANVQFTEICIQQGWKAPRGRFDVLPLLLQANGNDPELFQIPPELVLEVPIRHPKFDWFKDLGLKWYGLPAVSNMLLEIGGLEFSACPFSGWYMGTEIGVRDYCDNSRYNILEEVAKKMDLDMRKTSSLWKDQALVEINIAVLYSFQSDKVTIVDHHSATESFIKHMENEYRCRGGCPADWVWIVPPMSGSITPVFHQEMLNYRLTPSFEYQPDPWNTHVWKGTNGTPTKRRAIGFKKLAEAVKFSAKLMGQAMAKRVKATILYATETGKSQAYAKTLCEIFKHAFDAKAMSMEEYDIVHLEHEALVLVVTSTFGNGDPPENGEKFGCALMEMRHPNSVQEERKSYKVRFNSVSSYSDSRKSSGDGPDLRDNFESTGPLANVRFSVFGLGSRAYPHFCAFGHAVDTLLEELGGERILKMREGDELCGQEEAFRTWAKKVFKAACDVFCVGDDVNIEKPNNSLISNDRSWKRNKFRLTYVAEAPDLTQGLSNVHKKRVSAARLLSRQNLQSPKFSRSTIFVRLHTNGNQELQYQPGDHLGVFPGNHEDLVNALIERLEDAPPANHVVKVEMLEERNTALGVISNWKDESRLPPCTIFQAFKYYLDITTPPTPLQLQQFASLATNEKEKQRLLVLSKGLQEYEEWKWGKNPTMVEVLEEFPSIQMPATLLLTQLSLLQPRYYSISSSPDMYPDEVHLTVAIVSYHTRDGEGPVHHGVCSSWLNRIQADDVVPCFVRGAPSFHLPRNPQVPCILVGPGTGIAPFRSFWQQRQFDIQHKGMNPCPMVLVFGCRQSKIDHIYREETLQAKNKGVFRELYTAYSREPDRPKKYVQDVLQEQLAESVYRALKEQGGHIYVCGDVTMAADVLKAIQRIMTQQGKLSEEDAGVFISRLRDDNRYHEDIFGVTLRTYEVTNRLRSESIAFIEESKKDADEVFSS
Sequence of D(1A) dopamine receptor (P21728 whole entry): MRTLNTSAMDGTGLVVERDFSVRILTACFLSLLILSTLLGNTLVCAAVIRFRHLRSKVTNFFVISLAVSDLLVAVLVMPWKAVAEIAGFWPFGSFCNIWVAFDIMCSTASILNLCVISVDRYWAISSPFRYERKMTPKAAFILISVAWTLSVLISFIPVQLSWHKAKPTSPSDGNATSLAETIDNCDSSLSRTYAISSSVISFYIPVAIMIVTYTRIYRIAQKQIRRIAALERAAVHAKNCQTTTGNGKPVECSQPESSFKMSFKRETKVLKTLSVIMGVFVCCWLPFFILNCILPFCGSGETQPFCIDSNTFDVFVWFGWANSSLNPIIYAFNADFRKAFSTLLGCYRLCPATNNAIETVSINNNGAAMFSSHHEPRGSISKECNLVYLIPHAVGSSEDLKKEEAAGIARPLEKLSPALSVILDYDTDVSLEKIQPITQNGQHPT
Sequence of Vascular endothelial growth factor receptor 1 (P17948 whole entry): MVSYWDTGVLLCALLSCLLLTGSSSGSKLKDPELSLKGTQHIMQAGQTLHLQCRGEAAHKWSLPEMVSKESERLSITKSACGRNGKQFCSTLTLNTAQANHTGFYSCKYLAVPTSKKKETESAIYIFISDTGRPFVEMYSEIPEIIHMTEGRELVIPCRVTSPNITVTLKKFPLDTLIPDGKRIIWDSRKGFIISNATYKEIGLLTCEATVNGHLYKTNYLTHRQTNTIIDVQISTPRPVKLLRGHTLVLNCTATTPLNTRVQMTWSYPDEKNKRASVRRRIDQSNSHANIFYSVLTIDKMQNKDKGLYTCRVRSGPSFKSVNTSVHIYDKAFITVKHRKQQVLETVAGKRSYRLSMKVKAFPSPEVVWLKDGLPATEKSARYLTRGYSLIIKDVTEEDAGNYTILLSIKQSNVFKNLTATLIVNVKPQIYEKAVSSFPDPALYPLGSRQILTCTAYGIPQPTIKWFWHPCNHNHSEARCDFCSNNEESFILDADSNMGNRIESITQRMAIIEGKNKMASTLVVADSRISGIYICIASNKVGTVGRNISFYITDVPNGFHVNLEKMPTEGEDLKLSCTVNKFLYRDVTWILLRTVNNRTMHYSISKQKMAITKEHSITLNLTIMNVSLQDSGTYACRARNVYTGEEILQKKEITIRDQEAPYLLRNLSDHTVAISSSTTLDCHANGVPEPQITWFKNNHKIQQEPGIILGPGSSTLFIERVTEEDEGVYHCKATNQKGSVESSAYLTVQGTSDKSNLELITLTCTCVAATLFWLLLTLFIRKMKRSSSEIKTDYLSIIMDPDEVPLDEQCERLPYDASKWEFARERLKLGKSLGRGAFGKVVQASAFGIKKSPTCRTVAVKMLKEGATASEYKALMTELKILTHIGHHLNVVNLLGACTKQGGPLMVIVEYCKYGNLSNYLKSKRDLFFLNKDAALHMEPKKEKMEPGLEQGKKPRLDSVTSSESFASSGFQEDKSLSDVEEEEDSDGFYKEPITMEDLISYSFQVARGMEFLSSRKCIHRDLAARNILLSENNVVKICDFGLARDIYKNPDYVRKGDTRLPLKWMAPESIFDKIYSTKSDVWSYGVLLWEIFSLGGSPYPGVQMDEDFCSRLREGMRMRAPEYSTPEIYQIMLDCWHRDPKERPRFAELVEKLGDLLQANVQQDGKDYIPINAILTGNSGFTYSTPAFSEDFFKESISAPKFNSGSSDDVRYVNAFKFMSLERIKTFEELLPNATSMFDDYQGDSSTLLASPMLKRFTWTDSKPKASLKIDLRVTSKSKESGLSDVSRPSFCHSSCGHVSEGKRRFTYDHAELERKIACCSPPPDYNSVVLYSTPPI

Take `C=C(Cl)Cl` [1,1-DICHLOROETHENE]: the IC50 result in experiment [1], in experiment [2], in experiment [3] (cho), in experiment [4], in experiment [5] and in experiment [6] was “Not Active” each time. In addition, the IC50 result in experiment [7] and in experiment [8] was “Not Active” each time. Besides, the Ki entry in experiment [8] is reported as “Not Active”.
`Oc1ncnc2[nH]ncc12` [ALLOPURINOL]: the IC50 entry in experiment [1], in experiment [2], in experiment [3] (cho), in experiment [4], in experiment [5] and in experiment [6] was “Not Active” each time. Besides, the IC50 entry in experiment [7] and in experiment [8] was “Not Active” each time. Further, the Ki entry in experiment [8] is reported as “Not Active”.
`O=C(O)CCc1nc(-c2ccccc2)c(-c2ccccc2)o1` [OXAPROZIN]: the IC50 result in experiment [1], in experiment [2], in experiment [3] (cho), in experiment [4], in experiment [5] and in experiment [6] was “Not Active” in each case. The IC50 entry in experiment [7] and in experiment [8] was “Not Active” each time. The Ki result in experiment [8] was “Not Active”.
Take `ClC1=C(Cl)[C@]2(Cl)[C@@H]3[C@@H]4C[C@@H]([C@H]5O[C@@H]45)[C@@H]3[C@@]1(Cl)C2(Cl)Cl` [DIELDRIN]: the IC50 entry in experiment [1], in experiment [2], in experiment [3] (cho), in experiment [4], in experiment [5] and in experiment [6] was “Not Active” in each case. Further, the IC50 result in experiment [7] and in experiment [8] was “Not Active” in each case. In addition, the Ki entry in experiment [8] was “Not Active”.
Consider `OC[C@H]1O[C@@H]2O[C@H]3[C@H](O)[C@@H](O)[C@@H](O[C@H]4[C@H](O)[C@@H](O)[C@@H](O[C@H]5[C@H](O)[C@@H](O)[C@@H](O[C@H]6[C@H](O)[C@@H](O)[C@@H](O[C@H]7[C@H](O)[C@@H](O)[C@@H](O[C@H]8[C@H](O)[C@@H](O)[C@@H](O[C@H]1[C@H](O)[C@H]2O)O[C@@H]8CO)O[C@@H]7CO)O[C@@H]6CO)O[C@@H]5CO)O[C@@H]4CO)O[C@@H]3CO` [BETADEX], for which the IC50 entry in experiment [1], in experiment [2], in experiment [3] (cho), in experiment [4], in experiment [5] and in experiment [6] was “Not Active” in each case. In addition, the IC50 entry in experiment [7] and in experiment [8] was “Not Active” each time. Moreover, in experiment [8], the Ki result is given as “Not Active”.
What is called pIC50 is −log10 of the IC50, conventionally taken in molar units. Broadly, the pKi is the negative decadic logarithm of the Ki, by convention in mol/L. For `COc1ccc(Cl)cc1C(=O)NCCc1ccc(S(=O)(=O)NC(=O)NC2CCCCC2)cc1` [GLYBURIDE], the IC50 entry in experiment [1], in experiment [2], in experiment [3] (cho), in experiment [4], in experiment [5] and in experiment [6] was “Not Active” each time. The IC50 result in experiment [7] was “Not Active”. In experiment [8] (read-out: IC50), the pIC50 is 8.42. Moreover, in experiment [8] (read-out: Ki), the pKi is 9.36.
With `COC(=O)Nc1nc2ccc(Sc3ccccc3)cc2[nH]1` [FENBENDAZOLE], the IC50 result in experiment [1], in experiment [2], in experiment [3] (cho), in experiment [4], in experiment [5] and in experiment [6] was “Not Active” each time. Further, the IC50 result in experiment [7] and in experiment [8] was “Not Active” in each case. In experiment [8], the Ki entry is “Not Active”.
Consider `CNC[C@H](O)c1ccc(O)c(O)c1` [EPINEPHRINE], for which the IC50 result in experiment [1], in experiment [2], in experiment [3] (cho), in experiment [4], in experiment [5] and in experiment [6] was “Not Active” each time. The IC50 entry in experiment [7] and in experiment [8] was “Not Active” throughout. Also, in experiment [8], the Ki entry is “Not Active”.
Turning to `C=CCO` [ALLYL ALCOHOL], the IC50 result in experiment [1], in experiment [2], in experiment [3] (cho), in experiment [4], in experiment [5] and in experiment [6] was “Not Active” each time. Also, the IC50 result in experiment [7] and in experiment [8] was “Not Active” throughout. Also, the Ki result in experiment [8] is listed as “Not Active”.
With CARBOXYMETHYLCELLULOSE, the IC50 entry in experiment [1], in experiment [2], in experiment [3] (cho), in experiment [4], in experiment [5] and in experiment [6] was “Not Active” in each case. In addition, the IC50 entry in experiment [7] and in experiment [8] was “Not Active” in each case. In addition, the Ki entry in experiment [1], in experiment [2], in experiment [3] (cho), in experiment [4], in experiment [5] and in experiment [6] was “Not Active” each time. The Ki result in experiment [7] and in experiment [8] was “Not Active” in each case.
Consider `C=CCN1CC[C@]23c4c5ccc(O)c4O[C@H]2/C(=N/N=C2\CC[C@@]4(O)[C@H]6Cc7ccc(O)c8c7[C@@]4(CCN6CC=C)[C@H]2O8)CC[C@@]3(O)[C@H]1C5` [NALOXONAZINE], for which the IC50 entry in experiment [1], in experiment [2], in experiment [3] (cho), in experiment [4], in experiment [5] and in experiment [6] was “Not Active” each time. The IC50 entry in experiment [7] and in experiment [8] was “Not Active” each time. In experiment [8], the Ki entry is on record as “Not Active”.
As for `Cc1ccnc2c1NC(=O)c1cccnc1N2C1CC1` [NEVIRAPINE], the IC50 result in experiment [1], in experiment [2], in experiment [3] (cho), in experiment [4], in experiment [5] and in experiment [6] was “Not Active” throughout. Further, the IC50 result in experiment [7] and in experiment [8] was “Not Active” each time. In addition, the Ki entry in experiment [8] was “Not Active”.
With `NCC(CC(=O)O)c1ccc(Cl)cc1` (stereo not drawn) [BACLOFEN], the IC50 result in experiment [1], in experiment [2], in experiment [3] (cho), in experiment [4], in experiment [5] and in experiment [6] was “Not Active” in each case. Moreover, the IC50 entry in experiment [7] and in experiment [8] was “Not Active” throughout. Besides, the Ki entry in experiment [8] was “Not Active”.
Turning to `CO[C@H]1O[C@@H]2O[C@@]3(C)CC[C@H]4[C@H](C)CC[C@@H]([C@H]1C)[C@@]24OO3`, the IC50 entry in experiment [1], in experiment [2], in experiment [3] (cho), in experiment [4], in experiment [5] and in experiment [6] was “Not Active” in each case. In addition, the IC50 result in experiment [7] and in experiment [8] was “Not Active” each time. In addition, in experiment [8], the Ki entry is reported as “Not Active”.
As for `CC(CN1c2ccccc2Sc2ccccc21)N(C)C` (stereo not drawn) [PROMETHAZINE], the IC50 result in experiment [1], in experiment [2], in experiment [4], in experiment [5], in experiment [6] and in experiment [7] was “Not Active” throughout. In addition, the IC50 result in experiment [8] is on record as “Not Active”. For the same compound, the pIC50 in experiment [3] (read-out: IC50) is 5.56. Besides, the pKi in experiment [3] (read-out: Ki) was 5.86. Further, in experiment [8], the Ki entry was “Not Active”.
